What all share (assay): Kinase selectivity, P33-radiolabeled assay
What all share (format): biochemical
What all share (conditions): 10 μM ATP

Test [1] deals with T1, ABL1 (Homo sapiens, UniProt P00519).
T1 construct: purchased Reaction Biology Corp
Put shortly: (§1)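 Percent residual kinase activity versus DMSO is reported. Conditions: compound at 10 μM, ATP at 10 μM, n = 2.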

Test [2] addresses T2, CAMK2b (Homo sapiens, UniProt Q13554).
T2 construct: purchased Reaction Biology Corp
Put shortly:
as §1

Test [3] concerns the target T3, CLK1 (Homo sapiens, UniProt P49759).
T3 construct: purchased Reaction Biology Corp
Put shortly: as §1

For test [4], the target named is T4, DYRK2 (Homo sapiens, UniProt Q92630).
T4 construct: purchased Reaction Biology Corp
T4 sequence (Q92630 1-601): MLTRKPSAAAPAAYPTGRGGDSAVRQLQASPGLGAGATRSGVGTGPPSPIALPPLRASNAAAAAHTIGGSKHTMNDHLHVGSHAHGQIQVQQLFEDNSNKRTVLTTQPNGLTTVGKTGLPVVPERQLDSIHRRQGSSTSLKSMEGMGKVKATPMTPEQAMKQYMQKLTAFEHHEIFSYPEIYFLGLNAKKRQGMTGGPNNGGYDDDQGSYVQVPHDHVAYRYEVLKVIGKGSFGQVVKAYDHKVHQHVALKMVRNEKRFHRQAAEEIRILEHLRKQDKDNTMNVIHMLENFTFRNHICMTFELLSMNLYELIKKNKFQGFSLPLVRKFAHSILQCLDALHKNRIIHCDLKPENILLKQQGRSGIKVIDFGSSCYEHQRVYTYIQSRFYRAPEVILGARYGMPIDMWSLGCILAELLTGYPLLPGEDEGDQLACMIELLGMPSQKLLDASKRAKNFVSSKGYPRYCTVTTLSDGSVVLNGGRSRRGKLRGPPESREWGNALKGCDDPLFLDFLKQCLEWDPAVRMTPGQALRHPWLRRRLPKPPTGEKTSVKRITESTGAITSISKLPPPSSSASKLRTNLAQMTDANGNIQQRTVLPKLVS
Put shortly:
as §1

The target of test [5] is T5, GRK4 (Homo sapiens, UniProt P32298).
T5 construct: purchased Reaction Biology Corp
T5 sequence (P32298 whole entry): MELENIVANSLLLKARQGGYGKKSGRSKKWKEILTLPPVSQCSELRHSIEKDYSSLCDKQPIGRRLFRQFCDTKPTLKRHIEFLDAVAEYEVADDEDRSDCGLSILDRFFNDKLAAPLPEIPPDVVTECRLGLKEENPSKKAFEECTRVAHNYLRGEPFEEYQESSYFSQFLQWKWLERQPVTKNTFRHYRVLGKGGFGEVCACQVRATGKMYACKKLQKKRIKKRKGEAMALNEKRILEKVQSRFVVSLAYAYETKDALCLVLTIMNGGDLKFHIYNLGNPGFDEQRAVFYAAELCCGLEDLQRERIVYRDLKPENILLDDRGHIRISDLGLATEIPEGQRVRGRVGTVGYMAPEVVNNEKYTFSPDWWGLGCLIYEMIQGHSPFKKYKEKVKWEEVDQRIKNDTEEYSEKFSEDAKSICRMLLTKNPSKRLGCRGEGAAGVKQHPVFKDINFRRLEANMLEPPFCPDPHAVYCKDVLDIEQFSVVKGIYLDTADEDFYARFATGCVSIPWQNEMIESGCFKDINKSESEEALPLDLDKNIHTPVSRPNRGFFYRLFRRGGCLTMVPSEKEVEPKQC
Put shortly:
as §1

Test [6] addresses T6, LATS2 (Homo sapiens, UniProt Q9NRM7).
T6 construct: purchased Reaction Biology Corp
T6 sequence (Q9NRM7 1-1088): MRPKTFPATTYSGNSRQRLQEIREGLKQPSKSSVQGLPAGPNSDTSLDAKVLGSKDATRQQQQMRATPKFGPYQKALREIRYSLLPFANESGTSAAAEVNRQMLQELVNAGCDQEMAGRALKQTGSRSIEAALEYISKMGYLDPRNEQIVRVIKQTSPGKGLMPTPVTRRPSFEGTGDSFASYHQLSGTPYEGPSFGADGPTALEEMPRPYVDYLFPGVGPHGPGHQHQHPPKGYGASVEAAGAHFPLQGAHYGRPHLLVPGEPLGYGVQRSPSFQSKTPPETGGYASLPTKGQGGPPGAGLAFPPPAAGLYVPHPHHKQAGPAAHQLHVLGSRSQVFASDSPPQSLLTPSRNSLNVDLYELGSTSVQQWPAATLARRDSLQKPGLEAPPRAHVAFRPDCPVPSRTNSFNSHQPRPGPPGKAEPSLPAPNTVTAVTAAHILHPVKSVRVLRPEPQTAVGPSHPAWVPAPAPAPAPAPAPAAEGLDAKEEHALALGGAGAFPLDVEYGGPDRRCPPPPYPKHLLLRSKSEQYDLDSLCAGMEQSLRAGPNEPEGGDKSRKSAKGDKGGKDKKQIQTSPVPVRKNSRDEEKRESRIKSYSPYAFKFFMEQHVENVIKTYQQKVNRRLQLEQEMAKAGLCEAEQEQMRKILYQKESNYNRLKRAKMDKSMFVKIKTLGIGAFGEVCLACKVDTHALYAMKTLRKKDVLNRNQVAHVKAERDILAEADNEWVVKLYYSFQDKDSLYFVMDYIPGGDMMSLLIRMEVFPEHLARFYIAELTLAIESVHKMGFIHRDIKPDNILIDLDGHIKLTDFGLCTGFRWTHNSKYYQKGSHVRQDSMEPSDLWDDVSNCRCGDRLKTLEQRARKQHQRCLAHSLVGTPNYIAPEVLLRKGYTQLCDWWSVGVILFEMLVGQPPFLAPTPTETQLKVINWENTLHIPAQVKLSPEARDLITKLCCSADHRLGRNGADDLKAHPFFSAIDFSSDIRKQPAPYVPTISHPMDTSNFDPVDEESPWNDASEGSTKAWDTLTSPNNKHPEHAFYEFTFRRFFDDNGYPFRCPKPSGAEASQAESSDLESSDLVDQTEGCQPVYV
Put shortly:
as §1

Test [7] addresses T7, MST4 (Homo sapiens, UniProt Q9P289).
T7 construct: purchased Reaction Biology Corp
Put shortly:
as §1

Test [8] deals with T8, SRPK1 (Homo sapiens, UniProt Q96SB4).
T8 construct: purchased Reaction Biology Corp
T8 sequence (Q96SB4 whole entry): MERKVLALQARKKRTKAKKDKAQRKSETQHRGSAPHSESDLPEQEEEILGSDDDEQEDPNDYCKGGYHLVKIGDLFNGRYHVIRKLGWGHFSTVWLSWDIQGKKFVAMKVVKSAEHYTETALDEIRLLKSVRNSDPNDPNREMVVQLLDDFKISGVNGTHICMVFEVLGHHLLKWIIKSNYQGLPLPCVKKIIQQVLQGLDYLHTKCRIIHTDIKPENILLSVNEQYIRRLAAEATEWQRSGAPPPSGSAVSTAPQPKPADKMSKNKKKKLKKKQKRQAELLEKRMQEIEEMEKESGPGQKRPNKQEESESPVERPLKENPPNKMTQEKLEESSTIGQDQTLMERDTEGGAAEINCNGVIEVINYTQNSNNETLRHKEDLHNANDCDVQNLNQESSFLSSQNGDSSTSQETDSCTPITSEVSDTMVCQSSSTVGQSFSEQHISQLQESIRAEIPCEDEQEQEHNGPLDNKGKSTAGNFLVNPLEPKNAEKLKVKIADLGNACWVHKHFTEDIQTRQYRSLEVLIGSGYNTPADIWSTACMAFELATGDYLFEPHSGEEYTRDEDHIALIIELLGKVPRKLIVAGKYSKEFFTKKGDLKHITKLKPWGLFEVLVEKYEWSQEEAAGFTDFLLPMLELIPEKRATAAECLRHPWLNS
Put shortly: as §1

[9] abbreviates: read-out: % Enzyme Activity (relative to DMSO controls) AVG.
[10] abbreviates: read-out: % Enzyme Activity (relative to DMSO controls) Data 1.
Where [11] appears, read: read-out: % Enzyme Activity (relative to DMSO controls) Data 2.

Like-named read-outs stand apart in the source and are kept apart here.

T2 sequence (Q13554 whole entry): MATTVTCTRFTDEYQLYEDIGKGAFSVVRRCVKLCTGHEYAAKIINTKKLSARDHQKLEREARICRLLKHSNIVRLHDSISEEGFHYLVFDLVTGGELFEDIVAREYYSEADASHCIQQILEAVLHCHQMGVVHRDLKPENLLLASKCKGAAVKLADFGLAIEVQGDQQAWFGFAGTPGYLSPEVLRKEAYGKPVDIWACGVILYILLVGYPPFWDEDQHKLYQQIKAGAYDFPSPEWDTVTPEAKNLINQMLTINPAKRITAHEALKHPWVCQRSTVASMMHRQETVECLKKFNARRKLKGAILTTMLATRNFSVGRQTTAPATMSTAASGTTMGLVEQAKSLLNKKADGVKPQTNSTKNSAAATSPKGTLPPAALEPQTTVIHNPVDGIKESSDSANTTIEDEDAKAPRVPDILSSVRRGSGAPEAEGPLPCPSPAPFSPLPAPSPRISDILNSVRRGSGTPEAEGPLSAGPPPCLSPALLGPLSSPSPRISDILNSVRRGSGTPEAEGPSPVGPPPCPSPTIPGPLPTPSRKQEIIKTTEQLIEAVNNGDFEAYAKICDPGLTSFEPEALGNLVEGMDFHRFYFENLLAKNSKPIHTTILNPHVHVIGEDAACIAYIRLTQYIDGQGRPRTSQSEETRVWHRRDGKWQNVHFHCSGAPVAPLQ
T3 sequence (P49759 whole entry): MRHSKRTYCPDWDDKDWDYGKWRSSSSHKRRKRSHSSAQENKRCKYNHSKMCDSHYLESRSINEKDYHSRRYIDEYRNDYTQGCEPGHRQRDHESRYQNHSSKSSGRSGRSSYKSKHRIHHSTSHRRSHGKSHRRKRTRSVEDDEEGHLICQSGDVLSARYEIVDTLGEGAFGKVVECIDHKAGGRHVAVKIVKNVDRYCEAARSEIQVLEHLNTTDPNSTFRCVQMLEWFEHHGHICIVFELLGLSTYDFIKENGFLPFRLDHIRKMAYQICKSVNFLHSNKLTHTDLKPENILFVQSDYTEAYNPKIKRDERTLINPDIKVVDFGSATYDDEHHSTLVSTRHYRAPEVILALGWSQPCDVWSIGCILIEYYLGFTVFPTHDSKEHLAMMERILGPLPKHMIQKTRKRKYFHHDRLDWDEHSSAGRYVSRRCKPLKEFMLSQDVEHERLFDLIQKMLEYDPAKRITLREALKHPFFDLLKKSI
T7 sequence (Q9P289 whole entry): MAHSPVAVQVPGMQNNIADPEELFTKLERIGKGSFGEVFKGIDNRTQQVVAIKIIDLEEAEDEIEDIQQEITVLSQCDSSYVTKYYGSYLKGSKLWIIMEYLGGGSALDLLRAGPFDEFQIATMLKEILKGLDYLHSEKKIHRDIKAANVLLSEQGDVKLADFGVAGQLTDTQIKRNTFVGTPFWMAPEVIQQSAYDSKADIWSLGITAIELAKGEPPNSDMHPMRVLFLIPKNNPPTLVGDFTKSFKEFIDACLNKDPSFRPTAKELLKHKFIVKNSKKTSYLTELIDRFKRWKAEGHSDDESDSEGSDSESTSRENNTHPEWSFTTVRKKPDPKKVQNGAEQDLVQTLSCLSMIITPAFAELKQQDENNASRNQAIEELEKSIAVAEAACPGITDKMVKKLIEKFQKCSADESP
T1 sequence (P00519 whole entry): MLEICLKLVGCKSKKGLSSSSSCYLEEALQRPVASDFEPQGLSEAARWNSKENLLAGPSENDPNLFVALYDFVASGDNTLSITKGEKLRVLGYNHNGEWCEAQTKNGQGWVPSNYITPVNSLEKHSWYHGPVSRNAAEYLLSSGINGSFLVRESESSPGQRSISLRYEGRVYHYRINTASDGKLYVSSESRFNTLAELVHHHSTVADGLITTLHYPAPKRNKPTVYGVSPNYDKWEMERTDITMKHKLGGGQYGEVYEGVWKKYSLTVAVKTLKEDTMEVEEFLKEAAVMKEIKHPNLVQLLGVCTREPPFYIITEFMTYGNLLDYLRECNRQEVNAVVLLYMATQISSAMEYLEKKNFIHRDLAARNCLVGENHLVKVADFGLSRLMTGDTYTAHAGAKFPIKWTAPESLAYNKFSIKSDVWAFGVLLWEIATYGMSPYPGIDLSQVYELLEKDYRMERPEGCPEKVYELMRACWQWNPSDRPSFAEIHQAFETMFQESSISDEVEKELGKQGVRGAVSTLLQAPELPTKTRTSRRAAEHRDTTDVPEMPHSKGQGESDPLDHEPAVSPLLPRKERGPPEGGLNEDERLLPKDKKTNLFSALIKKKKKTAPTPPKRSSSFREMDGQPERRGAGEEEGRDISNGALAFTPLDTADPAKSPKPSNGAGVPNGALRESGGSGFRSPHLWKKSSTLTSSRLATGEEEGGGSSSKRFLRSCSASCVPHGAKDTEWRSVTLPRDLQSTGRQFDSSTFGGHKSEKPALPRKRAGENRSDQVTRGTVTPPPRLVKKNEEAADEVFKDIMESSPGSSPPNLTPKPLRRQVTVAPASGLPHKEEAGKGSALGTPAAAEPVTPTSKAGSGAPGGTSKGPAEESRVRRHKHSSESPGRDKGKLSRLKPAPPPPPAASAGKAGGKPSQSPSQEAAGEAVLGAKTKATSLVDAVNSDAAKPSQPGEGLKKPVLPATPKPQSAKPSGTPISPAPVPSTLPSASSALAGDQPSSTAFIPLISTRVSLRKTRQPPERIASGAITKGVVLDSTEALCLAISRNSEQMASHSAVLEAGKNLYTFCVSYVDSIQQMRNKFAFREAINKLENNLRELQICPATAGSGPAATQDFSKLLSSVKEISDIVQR

Regarding `CC(C)(C)C(=O)N1N=CC[C@H]1c1ccccc1` [GSK′963], the remaining activity at 10 µM was determined as 99.3% in test [1] (setting [9]); 102% in test [1] (setting [10]); 96.9% in test [1] (setting [11]); 95.1% in test [2] (setting [9]); 94.1% in test [2] (setting [10]); 96.1% in test [2] (setting [11]). For the same compound, the remaining activity at 10 µM in test [3] (setting [9]) is 107%; in test [3] (setting [10]), 108%; in test [3] (setting [11]), 106%; in test [4] (setting [9]), 97.7%; in test [4] (setting [10]), 96.9%; in test [4] (setting [11]) it was 98.4%. The remaining activity at 10 µM was determined as 97.9% in test [5] (setting [9]); 97.9% in test [5] (setting [10]); 97.8% in test [5] (setting [11]); 117% in test [6] (setting [9]); 112% in test [6] (setting [10]); 121% in test [6] (setting [11]). Besides, the remaining activity at 10 µM in test [7] (setting [9]) stood at 104%; in test [7] (setting [10]), 103%; in test [7] (setting [11]), 105%; in test [8] (setting [9]), 97.7%; in test [8] (setting [10]), 93.2%; in test [8] (setting [11]), 102%.

Source of the values: article PMC4979471 (Cell Death Discovery, 2015).
